From paper PMC7587356, “High-Throughput Screening for Inhibitors of the SARS-CoV-2 Protease Using a FRET-Biosensor” (Molecules, 2020) come the findings set out here.

The target in the test is SARS-CoV-2 3CLpro (Severe acute respiratory syndrome coronavirus 2, UniProt P0DTD1). As to the kind of experiment: biochemical. On the set-up: Replicate_1 / Replicate_2 / mean / mean (LOPAC_screen_w_protease): unit not given here. The conditions noted are these: for inhibition at 5 µM: 4 h. Format: biochemical.
The mark [1] stands for this setting: LOPAC1280 primary screen with protease, 5 µM compound, replicate 1, read-out: Replicate_1 (LOPAC_screen_w_protease).
Setting [2] is: LOPAC1280 primary screen with protease, 5 µM compound, replicate 2, read-out: Replicate_2 (LOPAC_screen_w_protease).
[3] abbreviates: LOPAC1280 primary screen with protease, 5 µM compound, mean of two replicates.
Setting [4] is: sheet LOPAC_screen_w_protease, primary screen with protease, mean of two replicates, read-out: mean.
Where [5] appears, read: sheet LOPAC_screen_w_protease, primary screen with protease, replicate 1, read-out: Replicate_1.
The mark [6] stands for this setting: sheet LOPAC_screen_w_protease, primary screen with protease, replicate 2, read-out: Replicate_2.
Setting [7] is: sheet LOPAC_screen_w_protease, LOPAC1280 primary screen with protease, 5 µM compound, mean of the two replicates, read-out: mean.
Where [8] appears, read: sheet LOPAC_screen_w_protease, LOPAC1280 primary screen with protease, 5 µM compound, replicate 1, read-out: Replicate_1.
Where [9] appears, read: sheet LOPAC_screen_w_protease, LOPAC1280 primary screen with protease, 5 µM compound, replicate 2, read-out: Replicate_2.
Where [10] appears, read: sheet LOPAC_screen_w_protease, primary screen with protease, 5 µM, mean of two replicates, read-out: mean.
The mark [11] stands for this setting: sheet LOPAC_screen_w_protease, primary screen with protease, 5 µM, replicate 1, read-out: Replicate_1.
Setting [12] is: sheet LOPAC_screen_w_protease, primary screen with protease, 5 µM, replicate 2, read-out: Replicate_2.
The mark [13] stands for this setting: sheet LOPAC_screen_w_protease, LOPAC1280 primary screen at 5 µM, with protease, mean of the two replicates, read-out: mean.
Setting [14] is: sheet LOPAC_screen_w_protease, LOPAC1280 primary screen at 5 µM, with protease, replicate 1, read-out: Replicate_1.
Setting [15] is: sheet LOPAC_screen_w_protease, LOPAC1280 primary screen at 5 µM, with protease, replicate 2, read-out: Replicate_2.
[16] abbreviates: sheet LOPAC_screen_w_protease, LOPAC1280 at 5 µM, mean of two replicates, read-out: mean.
Where [17] appears, read: sheet LOPAC_screen_w_protease, LOPAC1280 at 5 µM, replicate 1, read-out: Replicate_1.
Setting [18] is: sheet LOPAC_screen_w_protease, LOPAC1280 at 5 µM, replicate 2, read-out: Replicate_2.
The mark [19] stands for this setting: sheet LOPAC_screen_w_protease, LOPAC1280 primary screen at 5 µM, with protease, replicate 1.
Setting [20] is: sheet LOPAC_screen_w_protease, LOPAC1280 primary screen at 5 µM, with protease, replicate 2.
The mark [21] stands for this setting: sheet LOPAC_screen_w_protease, LOPAC1280 primary screen at 5 µM, with protease, mean of the two replicates.
The mark [22] stands for this setting: sheet LOPAC_screen_w_protease, primary screen with protease, 5 µM, mean of two replicates.
[23] abbreviates: sheet LOPAC_screen_w_protease, primary screen with protease, 5 µM, replicate 1.
Where [24] appears, read: sheet LOPAC_screen_w_protease, primary screen with protease, 5 µM, replicate 2.

Structures can show the parent of a compound that is named as a salt. Where two headings read alike, the source gives them in different places.

`NCCc1c[nH]c2ccc(O)cc12` [Serotonin hydrochloride]: the inhibition at 5 µM by setting is: under setting [1], 2.37%; under setting [2], 1.09%. For the same compound, the “mean (LOPAC_screen_w_protease)” value under setting [3] is 1.729.
Take `CC(C)COC(=O)OCN1C(=O)CN(CCN2CC(=O)N(COC(=O)OCC(C)C)C(=O)C2)CC1=O` [Sobuzoxane]: the inhibition at 5 µM reads like this: under setting [4], 2.23%; under setting [5], 2.79%; under setting [6], 1.66%.
With `NC(=O)C(=O)O` [Sodium Oxamate], the inhibition at 5 µM came out at 4.58% under setting [7], 4.67% under setting [8] and 4.48% under setting [9].
For `NCCCCNCCCN` [Spermidine trihydrochloride], the inhibition at 5 µM runs as follows: under setting [7], 4.14%; under setting [8], 3.25%; under setting [9], 5.03%.
In the case of `NCCCNCCCCNCCCN` [Spermine tetrahydrochloride], the inhibition at 5 µM (read-out: Replicate_1) came out at 3.94%, the inhibition at 5 µM (read-out: Replicate_2) worked out at 4.24% and the inhibition at 5 µM (read-out: mean) was found to be 4.09%.
As to `CCCCCCCCCCCCC/C=C/[C@@H](O)[C@@H](N)CO` [Sphingosine], the inhibition at 5 µM is -0.887% under setting [10], -1.81% under setting [11] and 0.0317% under setting [12].
As for `O=C(CCCN1CCC2(CC1)C(=O)NCN2c1ccccc1)c1ccc(F)cc1` [Spiperone hydrochloride], the inhibition at 5 µM reads like this: under setting [1], 2.31%; under setting [2], 1.15%. In addition, the “mean (LOPAC_screen_w_protease)” value under setting [3] was 1.727.
As for `O=C1NCN(c2ccccc2)C12CCN(CC1COc3ccccc3O1)CC2` (stereo not drawn) [Spiroxatrine], the inhibition at 5 µM is 0.522% under setting [13], 1.86% under setting [14] and -0.819% under setting [15].
As for `C[N+](C)(C)CCOC(=O)CCC(=O)OCC[N+](C)(C)C` [Succinylcholine chloride], the inhibition at 5 µM under setting [16] came to 1.08%, the inhibition at 5 µM under setting [17] was 1.05% and the inhibition at 5 µM under setting [18] came out at 1.11%.
As for `Nc1ccc(S(=O)(=O)Nc2ccnn2-c2ccccc2)cc1` [Sulfaphenazole], the inhibition at 5 µM was 0.0259% under setting [10], 0.159% under setting [11] and -0.107% under setting [12].
Regarding `CC1=C(CC(=O)O)c2cc(F)ccc2/C1=C\c1ccc(S(C)(=O)=O)cc1` [Sulindac sulfone], the mean (sheet LOPAC_screen_w_protease, LOPAC1280 primary screen at 5 µM, with protease, mean of two replicates) is given as -1.258. This compound also returned a Replicate_1 under setting [19] of 0.6759. Under setting [20], this compound showed a Replicate_2 of -3.192.
As to `Cc1ccc(C(=O)Nc2ccc(S(=O)(=O)O)c3cc(S(=O)(=O)O)cc(S(=O)(=O)O)c23)cc1NC(=O)c1cccc(NC(=O)Nc2cccc(C(=O)Nc3cc(C(=O)Nc4ccc(S(=O)(=O)O)c5cc(S(=O)(=O)O)cc(S(=O)(=O)O)c45)ccc3C)c2)c1` [Suramin hexasodium], the inhibition at 5 µM is, setting by setting: under setting [16], 1.22%; under setting [17], 2.66%; under setting [18], -0.222%.
Regarding `COC(=O)c1c(-c2cc(OC)c(OC)c(OC)c2)c2ccnc(OCc3ncccn3)c2c(=O)n1Cc1ccnc(C)c1` [T-0156], the mean under setting [21] is recorded as 0.7124. The same compound had a Replicate_1 under setting [19] of 1.2. For the same compound, the Replicate_2 under setting [20] worked out at 0.2248.
`COC(=O)c1c(-c2cc(OC)c(OC)c(OC)c2)c2ccc(OCc3ccccn3)cc2c(=O)n1-c1ccc(N)cc1.O=S(=O)(O)O` [T-1032] registered a mean under setting [21] of 0.5404. Also, under setting [19], the Replicate_1 was 1.02. Further, the Replicate_2 under setting [20] was found to be 0.06128.
The compound `Clc1cnc(Oc2ccc(Oc3ncc(Cl)cc3Cl)cc2)c(Cl)c1` [TCPOBOP] yielded a mean (sheet LOPAC_screen_w_protease, primary screen with protease, mean of two replicates) of 2.32. For the setting “sheet LOPAC_screen_w_protease, primary screen with protease, replicate 1”, this compound yielded a Replicate_1 of 5.456. The compound further displayed a Replicate_2 (sheet LOPAC_screen_w_protease, primary screen with protease, replicate 2) of -0.8151.
With `CCSC(=N)Nc1ccc(C(F)(F)F)cc1.Cl` [TFPI hydrochloride], under setting [3], the “mean (LOPAC_screen_w_protease)” value turned out to be 1.706. Also, the “Replicate_1 (LOPAC_screen_w_protease)” value (LOPAC1280 primary screen with protease, 5 µM compound, replicate 1) came out at 2.498. Besides, the “Replicate_2 (LOPAC_screen_w_protease)” value (LOPAC1280 primary screen with protease, 5 µM compound, replicate 2) is listed as 0.9137.
`Cl.O=c1[nH]oc2c1CCNC2` [THIP hydrochloride] registered a mean under setting [22] of -0.005768. Under setting [23], this compound returned a Replicate_1 of -0.552. Further, under setting [24], the Replicate_2 worked out at 0.5405.
Under setting [22], `CCN(CC)CCCCCCCCOC(=O)c1cc(OC)c(OC)c(OC)c1.Cl` [TMB-8 hydrochloride] came in with a mean of -0.545. The compound also registered a Replicate_1 under setting [23] of 0.4949. This compound yielded a Replicate_2 under setting [24] of -1.585.
The like results for `CP(=O)(O)C1=CCNCC1` [TPMPA] were, in that order, 0.264, -0.09904 and 0.6269.
Consider `C/C(=C\c1ccc(C(=O)O)cc1)c1ccc2c(c1)C(C)(C)CCC2(C)C` [TTNPB], for which the mean (sheet LOPAC_screen_w_protease, primary screen of LOPAC1280 at 5 µM with protease, mean of the two replicates) turned out to be 3.657. For the same compound, the Replicate_1 (sheet LOPAC_screen_w_protease, primary screen of LOPAC1280 at 5 µM with protease, replicate 1) was found to be 5.544. Further, the Replicate_2 (sheet LOPAC_screen_w_protease, primary screen of LOPAC1280 at 5 µM with protease, replicate 2) was found to be 1.7694.
`NCCS(=O)(=O)O` [Taurine]: the inhibition at 5 µM amounted to 2.66% under setting [1] and 1.18% under setting [2]. For the same compound, the “mean (LOPAC_screen_w_protease)” value (LOPAC1280 primary screen with protease, 5 µM compound, mean of the two replicates) worked out at 1.917.
On to `Cc1scc2c1N(C(=O)CN1CCN(C)CC1)c1ccccc1NC2=O` [Telenzepine dihydrochloride], for which the inhibition at 5 µM is, setting by setting: under setting [10], 0.413%; under setting [11], -0.915%; under setting [12], 1.74%.
`CC(C)(C)NCC(O)c1cc(O)cc(O)c1.CC(C)(C)NCC(O)c1cc(O)cc(O)c1.O=S(=O)(O)O` (stereo not drawn) [Terbutaline hemisulfate] returned a mean (sheet LOPAC_screen_w_protease, LOPAC1280 at 5 µM, mean of two replicates) of 1.161. This compound also gave a Replicate_1 (sheet LOPAC_screen_w_protease, LOPAC1280 at 5 µM, replicate 1) of -0.3816. The compound also displayed a Replicate_2 (sheet LOPAC_screen_w_protease, LOPAC1280 at 5 µM, replicate 2) of 2.703.
Turning to `CCCCNc1ccc(C(=O)OCCN(C)C)cc1` [Tetracaine hydrochloride], the inhibition at 5 µM is, setting by setting: under setting [10], -0.191%; under setting [11], 0.225%; under setting [12], -0.607%.
Turning to `CCCCCCCCCCCCCCSCC(=O)O` [Tetradecylthioacetic acid], the inhibition at 5 µM reads like this: (sheet LOPAC_screen_w_protease, LOPAC1280 primary screen at 5 µM, with protease, mean of two replicates, read-out: mean) -1.74%; under setting [14], -1.66%; under setting [15], -1.82%.
For the compound `CC[N+](CC)(CC)CC` [Tetraethylammonium chloride], the inhibition at 5 µM reads like this: (read-out: Replicate_1) 2.25%; (read-out: Replicate_2) -1.51%; (read-out: mean) 0.374%.
With `c1ccc2c(c1)CCCC2C1=NCCN1` (stereo not drawn) [Tetrahydrozoline hydrochloride], the inhibition at 5 µM amounted to 2.26% under setting [4], 1.87% under setting [5] and 2.65% under setting [6].
Regarding `CC(C)NP(=O)(NC(C)C)OP(=O)(NC(C)C)NC(C)C` [Tetraisopropyl pyrophosphoramide], the inhibition at 5 µM (read-out: Replicate_1) worked out at 1.18%, the inhibition at 5 µM (read-out: Replicate_2) was -0.275% and the inhibition at 5 µM (read-out: mean) was 0.452%.
With `c1ccc(C2CN3CCSC3=N2)cc1` (stereo not drawn) [Tetramisole hydrochloride], the inhibition at 5 µM (read-out: Replicate_1) is 1.43%, the inhibition at 5 µM (read-out: Replicate_2) is -2.01% and the inhibition at 5 µM (read-out: mean) is -0.287%.
Take `C/C=C(/C)C(=O)O[C@H]1C(C)=C2[C@H]([C@@H]1OC(=O)CCCCCCC)[C@@](C)(OC(C)=O)C[C@H](OC(=O)CCC)[C@@]1(O)[C@H]2OC(=O)[C@@]1(C)O` [Thapsigargin]: the inhibition at 5 µM was 0.567% under setting [13], 2.46% under setting [14] and -1.32% under setting [15].
Turning to `Cn1cnc2c1c(=O)[nH]c(=O)n2C` [Theobromine], the inhibition at 5 µM was found to be 3.53% (sheet LOPAC_screen_w_protease, primary screen of LOPAC1280 at 5 µM with protease, mean of the two replicates, read-out: mean); 4.5% (sheet LOPAC_screen_w_protease, primary screen of LOPAC1280 at 5 µM with protease, replicate 1, read-out: Replicate_1); 2.55% (sheet LOPAC_screen_w_protease, primary screen of LOPAC1280 at 5 µM with protease, replicate 2, read-out: Replicate_2).
